Data taken from US20230287044A1, “NOVEL ANTIBACTERIAL PEPTIDE AND USE THEREOF” (priority 2020, published 2023).
Values after ≈ are worked out from the molar mass of the structure shown. Where two headings read alike, the source gives them in different places. Square brackets hold non-standard residues; d marks the D form. Ends that are not written are not given here. Peptide text beside a SMILES is read from it.

What was measured:
[1] = tested on: MRPA (P. aeruginosa) CCARM 2180; assay type: cell-based, Pseudomonas aeruginosa; details: CCARM 2180, 18 h
In short: (§1)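 Mid-log cultures grown in CAMHB and diluted to 1× 10^6 cfu/ml in PBS were mixed with an equal volume of peptide in CAMHB (80 µM to 0.63 µM twofold dilutions). MIC taken as the mean of three independent experiments.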

[2] = tested on: VRE (E. faecalis) ATCC 51575; assay type: cell-based, Enterococcus faecalis
In short: as §1

[3] = tested on: MRSA (S. aureus) KCCM 40510; assay type: cell-based, Staphylococcus aureus
In short: as §1

[4] = tested on: MRAB (A. baumannii) ATCC BAA 1605; assay type: cell-based, Acinetobacter baumannii
In short: as §1

[5] = CAMHB, 37° C., 18 hours, average of three experiments

Molecule	MIC MRPA (P. aeruginosa) CCARM 2180 [1]	MIC VRE (E. faecalis) ATCC 51575 ([2]; ATCC 51575, 18 h)	MIC MRSA (S. aureus) KCCM 40510 ([3]; KCCM 40510, 18 h)	MIC MRAB (A. baumannii) ATCC BAA 1605 ([4]; ATCC BAA 1605, 18 h)	MIC VRE (E. faecalis) ATCC 51575 [2, 5]	MIC MRSA (S. aureus) KCCM 40510 [3, 5]	MIC MRAB (A. baumannii) ATCC BAA 1605 [4, 5]
CC(C)[C@@H](NC(=O)[C@@H](Cc1c[nH]c2ccccc12)NC(=O)[C@@H](CCCNC(=N)N)NC(=O)[C@@H](CCCNC(=N)N)NC(=O)[C@H](N)CCCNC(=N)N)C(=O)N[C@H](Cc1c[nH]c2ccccc12)C(=O)N[C@@H](C(=O)N[C@@H](C(=O)N[C@@H](C(=O)N[C@H](Cc1c[nH]c2ccccc12)C(N)=O)C(C)C)C(C)C)C(C)C [KSH82, rrrwvwvvvw] (H-[dR][dR][dR][dW][dV][dW][dV][dV][dV][dW]-NH2; N-terminus assumed)	10 µM (≈ 14.4 µg/mL)	1.25 µM (≈ 1.8 µg/mL)	1.25 µM (≈ 1.8 µg/mL)	10 µM (≈ 14.4 µg/mL)	–	–	–
CC(C)[C@@H](NC(=O)[C@@H](Cc1c[nH]c2ccccc12)NC(=O)[C@H](NC(=O)[C@H](NC(=O)[C@@H](Cc1c[nH]c2ccccc12)NC(=O)[C@@H](CCCNC(=N)N)NC(=O)[C@@H](CCCNC(=N)N)NC(=O)[C@H](N)CCCNC(=N)N)C(C)C)C(C)C)C(=O)N[C@H](Cc1c[nH]c2ccccc12)C(=O)N[C@H](Cc1c[nH]c2ccccc12)C(N)=O [KSH83, rrrwvvwvww] (H-[dR][dR][dR][dW][dV][dV][dW][dV][dW][dW]-NH2; N-terminus assumed)	5 µM (≈ 7.64 µg/mL)	1.25 µM (≈ 1.91 µg/mL)	1.25 µM (≈ 1.91 µg/mL)	10 µM (≈ 15.3 µg/mL)	–	–	–
CC(C)[C@@H](NC(=O)[C@@H](Cc1c[nH]c2ccccc12)NC(=O)[C@H](NC(=O)[C@H](NC(=O)[C@@H](Cc1c[nH]c2ccccc12)NC(=O)[C@@H](CCCNC(=N)N)NC(=O)[C@@H](CCCNC(=N)N)NC(=O)[C@H](N)CCCNC(=N)N)C(C)C)C(C)C)C(=O)N[C@@H](C(=O)N[C@H](Cc1c[nH]c2ccccc12)C(N)=O)C(C)C [KSH84, rrrwvvwvvw] (H-[dR][dR][dR][dW][dV][dV][dW][dV][dV][dW]-NH2; N-terminus assumed)	2.5 µM (≈ 3.6 µg/mL)	1.25 µM (≈ 1.8 µg/mL)	1.25 µM (≈ 1.8 µg/mL)	10 µM (≈ 14.4 µg/mL)	–	–	–
CC(C)[C@@H](NC(=O)[C@@H](Cc1c[nH]c2ccccc12)NC(=O)[C@@H](CCCNC(=N)N)NC(=O)[C@@H](CCCNC(=N)N)NC(=O)[C@H](N)CCCNC(=N)N)C(=O)N[C@@H](C(=O)N[C@@H](C(=O)N[C@@H](C(=O)N[C@H](Cc1c[nH]c2ccccc12)C(=O)N[C@H](Cc1c[nH]c2ccccc12)C(N)=O)C(C)C)C(C)C)C(C)C [KSH85, rrrwvvvvww] (H-[dR][dR][dR][dW][dV][dV][dV][dV][dW][dW]-NH2; N-terminus assumed)	10 µM (≈ 14.4 µg/mL)	1.25 µM (≈ 1.8 µg/mL)	1.25 µM (≈ 1.8 µg/mL)	10 µM (≈ 14.4 µg/mL)	–	–	–
CC(C)[C@@H](NC(=O)[C@@H](Cc1c[nH]c2ccccc12)NC(=O)[C@@H](CCCNC(=N)N)NC(=O)[C@@H](CCCNC(=N)N)NC(=O)[C@H](N)CCCNC(=N)N)C(=O)N[C@@H](C(=O)N[C@@H](C(=O)N[C@@H](C(=O)N[C@@H](C(=O)N[C@H](Cc1c[nH]c2ccccc12)C(N)=O)C(C)C)C(C)C)C(C)C)C(C)C [KSH86, rrrwvvvvvw] (H-[dR][dR][dR][dW][dV][dV][dV][dV][dV][dW]-NH2; N-terminus assumed)	10 µM (≈ 13.5 µg/mL)	1.25 µM (≈ 1.69 µg/mL)	1.25 µM (≈ 1.69 µg/mL)	10 µM (≈ 13.5 µg/mL)	–	–	–
CC(C)[C@@H](NC(=O)[C@@H](Cc1c[nH]c2ccccc12)NC(=O)CNC(=O)[C@@H](CCCNC(=N)N)NC(=O)[C@@H](CCCNC(=N)N)NC(=O)[C@H](N)CCCNC(=N)N)C(=O)N[C@H](Cc1c[nH]c2ccccc12)C(=O)N[C@@H](C(=O)N[C@@H](C(=O)N[C@H](Cc1c[nH]c2ccccc12)C(=O)N[C@H](CCCCN)C(N)=O)C(C)C)C(C)C [KSH90, rrrgwvwvvwk] (H-[dR][dR][dR]G[dW][dV][dW][dV][dV][dW][dK]-NH2; N-terminus assumed)	5 µM (≈ 7.63 µg/mL)	1.25 µM (≈ 1.91 µg/mL)	1.25 µM (≈ 1.91 µg/mL)	5 µM (≈ 7.63 µg/mL)	–	–	–
CC[C@@H](C)[C@@H](NC(=O)[C@@H](Cc1c[nH]c2ccccc12)NC(=O)[C@H](NC(=O)[C@@H](CC(C)C)NC(=O)[C@H](N)Cc1c[nH]c2ccccc12)[C@H](C)CC)C(=O)NCC(=O)N[C@H](CC(C)C)C(=O)N[C@H](CCCNC(=N)N)C(=O)N[C@H](CCCCN)C(=O)N[C@H](CCCCN)C(=O)N[C@H](CCCNC(=N)N)C(N)=O [KSH I, wliwiglrkk r] (H-[dW][dL][dI][dW][dI]G[dL][dR][dK][dK][dR]-NH2; N-terminus assumed)	10 µM (≈ 14.7 µg/mL)	2.5 µM (≈ 3.67 µg/mL)	2.5 µM (≈ 3.67 µg/mL)	1.25 µM (≈ 1.83 µg/mL)	–	–	–
WLLWIALRKKR-NH2 [KSH1]	40 µM	–	–	–	5 µM	2.5 µM	5 µM

The next lines start with results.

MIC MRPA (P. aeruginosa) CCARM 2180 [1]	MIC VRE (E. faecalis) ATCC 51575 ([2]; ATCC 51575, 18 h)	MIC MRSA (S. aureus) KCCM 40510 ([3]; KCCM 40510, 18 h)	MIC MRAB (A. baumannii) ATCC BAA 1605 ([4]; ATCC BAA 1605, 18 h)	Molecule	MIC VRE (E. faecalis) ATCC 51575 [2, 5]	MIC MRSA (S. aureus) KCCM 40510 [3, 5]	MIC MRAB (A. baumannii) ATCC BAA 1605 [4, 5]
40 µM (≈ 58.8 µg/mL)	10 µM (≈ 14.7 µg/mL)	10 µM (≈ 14.7 µg/mL)	5 µM (≈ 7.35 µg/mL)	CC[C@H](C)[C@H](NC(=O)[C@H](Cc1c[nH]c2ccccc12)NC(=O)[C@@H](NC(=O)[C@H](CC(C)C)NC(=O)[C@@H](N)Cc1c[nH]c2ccccc12)C(C)C)C(=O)N[C@@H](Cc1c[nH]c2ccccc12)C(=O)N[C@@H](CCCNC(=N)N)C(=O)N[C@@H](CCCCN)C(=O)N[C@@H](CCCCN)C(=O)N[C@@H](CCCNC(=N)N)C(N)=O [LSH28]	–	–	–
>40 µM	10 µM	>40 µM	2.5 µM	VWVWVWVRKKR-NH2 [LSH99]	–	–	–
>40 µM	20 µM	20 µM	5 µM	WLAWLYLRKKR-NH2 [LSH8]	–	–	–
40 µM	10 µM	10 µM	5 µM	WLLWLYARKKR-NH2 [LSH9]	–	–	–
20 µM	2.5 µM	2.5 µM	1.25 µM	WLLWVLWRKKR-NH2 [LSH3]	–	–	–
20 µM	5 µM	25 µM	1.25 µM	WLLWVYVRKKR-NH2 [XSH2]	–	–	–
20 µM	5 µM	5 µM	1.25 µM	WLVYVWLRKKR-NH2 [LSH2]	–	–	–
40 µM	10 µM	10 µM	2.5 µM	WLWVWVRKKR-NH2 [LSH5]	–	–	–
20 µM	2.5 µM	2.5 µM	2.5 µM	WVLWVWLRKKR-NH2 [LSH1]	–	–	–
>40 µM	20 µM	20 µM	5 µM	WVVWVVYRKKR-NH2 [LSH7]	–	–	–
40 µM	10 µM	10 µM	2.5 µM	WVVWVYVRKKR-NH2 [LSH6]	–	–	–
